Test results: patent US20040152904A1, “Delta1 pyrrolines” (priority 2001, published 2004)

Tests used:
Assay type in all cases: in vivo
[1] = system: caterpillars of the diamond-back moth (Plutella xylostella); assay: Plutella test; settings: 40 ppm active compound, cabbage leaves dipped
Experimental: Plutella Test Solvent: 30 parts by weight of dimethylformamide Emulsifier: 1 part by weight of alkylaryl polyglycol ether To produce a suitable preparation of active compound, 1 part by weight of active compound is mixed with the stated amounts of solvent and emulsifier, and the concentrate is diluted with emulsifier-containing water to the desired concentration. Cabbage leaves (Brassica oleracea) are treated by being dipped into the preparation of active compound of the desired concentration and are populated with caterpillars of the diamond-back moth (Plutella xylostella) whilst the leaves are still moist. After the desired period of time, the kill in % is determined. 100% means that all caterpillars have been killed; 0% means that none of the caterpillars have been killed.

[2] = system: Lucilia cuprina larvae; assay: Blowfly larvae test / development-inhibitory action; settings: 100 ppm active compound
Experimental: Blowfly Larvae Test/Development-Inhibitory Action Test animals: Lucilia cuprina larvae Solvent: Dimethyl sulphoxide 20 mg of active compound are dissolved in 1 ml of dimethyl sulphoxide, more dilute concentrations are prepared by dilution with distilled water. About 20 Lucilia cuprina larvae are introduced into a test tube which contains about 1 cm^3 of horse meat and 0.5 ml of the preparation of active compound to be tested. The efficacy of the preparation of active compound is determined after 24 and 48 hours. The test tubes are transferred into beakers whose bottom is covered with sand. After a further 2 days, the test tubes are removed and the pupae are counted. The activity of the preparation of active compound is assessed by the number of flies that have hatched after 1.5 times the development time of an untreated control. 100% means that no flies have hatched; 0% means that all flies have hatched normally.

[3] = system: army worm (Spodoptera exigua) caterpillars; assay: Spodoptera exigua test; settings: cabbage leaves dipped
Experimental: Spodoptera exigua Test Solvent: 7 parts by weight of dimethylformamide Emulsifier: 1 part by weight of alkylaryl polyglycol ether To produce a suitable preparation of active compound, 1 part by weight of active compound is mixed with the stated amounts of solvent and emulsifier, and the concentrate is diluted with emulsifier-containing water to the desired concentration. Cabbage leaves (Brassica oleracea) are treated by being dipped into the preparation of active compound of the desired concentration and are populated with army worm (Spodoptera exigua) caterpillars whilst the leaves are still moist. After the desired period of time, the kill in % is determined. 100% means that all caterpillars have been killed; 0% means that none of the caterpillars have been killed.

CC(C)(C)n1nnc(-c2ccc(-c3ccc(C4CCC(c5c(F)cccc5F)=N4)cc3)cc2)n1 (centres unmarked) [drawing 60]
Kill rate in % after 6d [1]: 100%

CCOCn1nnc(-c2ccc(-c3ccc(C4CCC(c5c(F)cccc5F)=N4)cc3)cc2)n1 (centres unmarked) [drawing 72]
Kill rate in % after 48h [2]: 70%

CC(C)(C)n1nnc(-c2ccc(-c3ccc(C4CCC(c5c(F)cccc5F)=N4)cc3)cc2)n1 (centres unmarked) [drawing 61]
Kill rate in % after 6d ([3]; 8 ppm active compound): 100%

CCn1nnc(-c2ccc(-c3ccc(C4CCC(c5c(F)cccc5F)=N4)cc3)cc2)n1 (centres unmarked) [drawing 62]
Kill rate in % after 6d ([3]; 40 ppm active compound): 100%

CCn1nnc(-c2ccc(-c3ccc(C4CCC(c5c(F)cccc5F)=N4)cc3)cc2)n1 (centres unmarked) [drawing 71]
Kill rate in % after 48h [2]: 100%
